These results are taken from PMC10440746, “Biosynthesis of 3,6-Dideoxy-heptoses for the Capsular Polysaccharides of Campylobacter jejuni” (Biochemistry, 2023).

The subject of test [1] is T1, C3-dehydratase (HS:5).
T1 construct: full length, N-terminal 21-residue His6 tag (pET-28a), codon-optimised gene, E. coli BL21(DE3)
The test is described as follows: coupled glutamate dehydrogenase assay, NADPH oxidation at […] nm. Type of test: biochemical, Campylobacter. Particulars: pH 7.5, 25 °C; 0.2 mM PLP, 4.0 mM L-glutamate; 50 mM ammonium bicarbonate; apparent.

For test [2], the system named is C5-epimerase (HS:5). Particulars: pH 7.5, 25 °C; 50 mM HEPES/KOH; 300 μM NADPH; apparent.

For the compound `Nc1nc2c(ncn2[C@@H]2O[C@H](COP(=O)(O)OP(=O)(O)O[C@H]3O[C@H](CCO)C(=O)[C@H](O)[C@@H]3O)[C@@H](O)[C@H]2O)c(=O)[nH]1` [compound 5, GDP-6-deoxy-4-keto-α-D-lyxo-heptose], the Michaelis constant (Km) in test [1] stood at 840 ± 60 µM.
With `Nc1nc2c(ncn2[C@@H]2O[C@H](COP(=O)(O)OP(=O)(O)O[C@H]3O[C@H](CCO)C(=O)C[C@@H]3O)[C@@H](O)[C@H]2O)c(=O)[nH]1` [compound 8, GDP-3,6-dideoxy-4-keto-α-D-threo-heptose], in test [2], the Michaelis-Menten constant (Km) came to 480 ± 80 µM.
